Test results from patent US20210134398A1, “Combinatorial Chemistry Computational System and Enhanced Selection Method” (Southern Methodist University, priority 2019, published 2021).
“Also recorded” adds a separate entry of the source.

What was measured:
[1] = system: P-gp overexpressing prostate cancer cell line, DU145TXR; test: MTT cell viability assay, resensitization to paclitaxel; assay type: cell-based, human; conditions: 3 to 10 μM inhibitor
From the text: The Group 1 ChemGen/docking routine produced variants of P-gp inhibitor 29 resensitize a multidrug resistant, P-gp overexpressing prostate cancer cell line to paclitaxel. The mitochondrial reduction potential of cells is often used as an indicator for cell viability using MTT assays^4. Using these assays it was observed that the five Group 1 derivatives of 29 predicted through the ChemGen/docking routine and synthesized here, 216, 227, 231, 541 and 551, re-sensitized the P-gp overexpressing prostate cancer cell line, DU145TXR^33, to the chemotherapeutic, paclitaxel (FIG. 12, showing results of assays at concentrations of 3 μM, 5 μM, 7 μM, and 10 μM).
Cytotoxicity of the chemotherapeutic, paclitaxel (PTX) to P-gp overexpressing prostate cancer cells, DU145TXR, was determined in the absence and presence of the ChemGen designed 29-variants, 216, 227, 231, 541 and 551. For each experimental compound IC50 values of PTX alone or in the presence of inhibitors, fold improvement of PTX sensitivity in the presence of inhibitor, and fold improvement of PTX sensitivity by variants compared to parental compound 29 are given.
Effects of Group 2 variants on the paclitaxel sensitivity of P-glycoprotein overexpressing prostate cancer cells, DU145TXR. MTT assays were again used to assess the efficacy of the new structural 29-variants on sensitizing the chemotherapy-resistant prostate cancer cell line, DU145TXR, to paclitaxel, at concentrations of 3 μM, 5 μM, 7 μM, and 10 μM as shown in FIG. 15 and Table 4.
MTT cell viability assay. Cells were trypsinized from monolayers and seeded with 3000 cells in 150 μL of complete medium in a 96 well plate. After 24 hours, cells were treated for 48 hours with paclitaxel (Acros Organics, NJ) and/or P-gp inhibitory compounds dissolved in DMSO, or DMSO controls. All additions were diluted into complete medium. After 48 hours of treatment, MTT assays were performed as described^41 using 5 mg/mL of MTT (Acros Organics, NJ) solution prepared in PBS (137 mM NaCl, 2.7 mM KCl, 10 mM Na2HPO4, 1.8 mM KH2PO4, pH 7.4). After 4 hours of incubation with MTT, the media was removed and the formazan crystals were dissolved in 100 μL of DMSO. The absorbance at 570 nm was then measured using a BioTek Cytation 5 imaging multi-mode reader (Bio-Tek, Winooski, Vt.). Percent viability was calculated using DMSO treated cells as representative for 100% viability, according to Equation 1. Background absorbance was determined using MTT and complete medium without cells and subtracted from all the test values. Equation 1:
The results were plotted as the mean with standard deviation (SD) of eight replicates per concentration from at least two independent experiments with n=8. The graphical representations and IC50 values were determined using four parameter variable slope non-linear regression, using the following equation: Y=bottom+(top-bottom)/(1+10^((log IC50−X)*Hill Slope) (GraphPad Prism™, La Jolla Calif., USA, Version 6.05). The reported “fold sensitization” was calculated as follows, per Equation 2: […]

[2] = target: T1, P-gp-catalyzed transport of calcein AM in DU145TXR cells (Homo sapiens, UniProt P08183); test: Calcein AM accumulation assay; assay type: cell-based; conditions: without pre-incubation, compared to parental 29, 5 μM stated for Group 2
T1 construct: DU145 human prostate cancer cells^52 as well as the multidrug resistant sub-line, DU145TXR; endogenous in cells; host or cells: DU145TXR (paclitaxel-selected sub-line of human DU145 prostate cancer cells)

[3] = target: P-gp (P-gp over-expressing cell line, DU145TXR) (Homo sapiens, UniProt P08183); test: Cellular accumulation of experimental compounds by LC-MS/MS with and without tariquidar; conditions: for Transport substrate for P-gp: not told
Description: Stimulation of basal ATPase by 29-variants was used as an indicator that a compound may be a P-gp transport substrate. Effects on stimulated P-gp ATPase activity indicated whether a compound directly interfered with ATP usage by the protein (***, p<0.001; **, p<0.01; *, p<0.1; NS, not significant). Quantitative cellular accumulation of 29-variants was performed using LC-MS/MS and is presented as a ratio of the cellular amounts of 29-variants in the presence of P-gp inhibitor, tariquidar, divided by amounts accumulated in its absence. […] Binding of an ATP analog, SL-ATP, to P-gp was used to determine whether ATP binding to P-gp was affected by the 29-variants. Values +/−standard deviations are shown for at least three different P-gp preparations and three independent SL-ATP titration experiments. The values for SL-ATP binding in the presence of 29 were taken directly from Brewer et al. (2014).
Intracellular accumulation of compound 29 variants. Cell accumulation assays for each of the 29 variants were performed as in reference^28 to more directly assess whether the compounds were indeed transport substrates for P-gp.
Cellular Accumulation Assays for Experimental P-gp Inhibitors. Cells used (DU145TXR), cell culturing, cell exposure to compounds, cellular handling and extractions were performed as described in^28. LC-MS/MS methods were performed as described in^71 and as modified in^28.

Sequence of P-gp (P-gp over-expressing cell line, DU145TXR) (P08183 whole entry): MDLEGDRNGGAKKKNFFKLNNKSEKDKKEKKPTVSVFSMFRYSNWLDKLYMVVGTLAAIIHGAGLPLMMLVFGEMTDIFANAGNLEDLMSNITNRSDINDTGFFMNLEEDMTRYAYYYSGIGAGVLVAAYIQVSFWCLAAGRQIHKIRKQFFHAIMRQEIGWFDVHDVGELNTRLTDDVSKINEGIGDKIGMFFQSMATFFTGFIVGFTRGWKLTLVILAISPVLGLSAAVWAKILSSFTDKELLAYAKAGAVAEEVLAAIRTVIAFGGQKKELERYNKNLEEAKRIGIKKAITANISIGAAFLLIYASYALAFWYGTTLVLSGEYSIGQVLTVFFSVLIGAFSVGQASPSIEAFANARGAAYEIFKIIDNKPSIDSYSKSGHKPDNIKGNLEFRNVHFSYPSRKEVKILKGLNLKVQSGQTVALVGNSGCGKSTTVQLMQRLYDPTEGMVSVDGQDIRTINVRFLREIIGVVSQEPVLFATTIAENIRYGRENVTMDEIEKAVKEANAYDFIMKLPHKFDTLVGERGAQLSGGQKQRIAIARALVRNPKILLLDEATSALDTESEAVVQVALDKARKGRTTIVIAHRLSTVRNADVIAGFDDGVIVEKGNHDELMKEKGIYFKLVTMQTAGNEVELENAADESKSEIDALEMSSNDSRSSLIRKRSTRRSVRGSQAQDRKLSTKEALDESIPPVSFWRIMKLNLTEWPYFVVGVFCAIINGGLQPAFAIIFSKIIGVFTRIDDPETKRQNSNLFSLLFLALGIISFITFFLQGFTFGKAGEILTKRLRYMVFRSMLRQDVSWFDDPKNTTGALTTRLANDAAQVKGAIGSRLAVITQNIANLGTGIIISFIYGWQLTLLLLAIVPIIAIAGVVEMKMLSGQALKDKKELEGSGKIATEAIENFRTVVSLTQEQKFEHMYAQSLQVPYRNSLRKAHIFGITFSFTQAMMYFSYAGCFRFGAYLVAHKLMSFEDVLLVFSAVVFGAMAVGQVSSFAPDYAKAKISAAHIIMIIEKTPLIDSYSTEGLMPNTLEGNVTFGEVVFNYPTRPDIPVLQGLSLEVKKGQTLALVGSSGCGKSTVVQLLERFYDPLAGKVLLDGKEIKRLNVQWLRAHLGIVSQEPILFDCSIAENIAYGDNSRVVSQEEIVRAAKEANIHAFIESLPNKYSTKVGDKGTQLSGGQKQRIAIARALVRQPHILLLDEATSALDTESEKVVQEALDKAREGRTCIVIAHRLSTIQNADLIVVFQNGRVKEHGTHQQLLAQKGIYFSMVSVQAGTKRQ
T1 sequence (P08183 whole entry): as above

SMILES	Resensitization of DU145TXR to paclitaxel / MDR reversal (in words) ([1]; listed as 541)	Calcein accumulation in DU145TXR (in words) ([2]; listed as 541)	Cellular accumulation: ratio of plus Tariquidar over no Tariquidar ([3]; human)	Transport substrate for P-gp ([3]; human)	Transport substrate for P-gp [3]	Resensitization of DU145TXR to paclitaxel / MDR reversal (in words) ([1]; listed as 278)	Calcein accumulation in DU145TXR (in words) [2]
Cc1cc(C)c(-c2cc(NC(=O)CSc3nnc4c(n3)[nH]c3ccccc34)n(-c3ccccc3)n2)cc1C [29-541, 2-((5H-[1,2,4]triazino[5,6-b]indol-3-yl)thio)-N-(1-phenyl-3-(2,4,5-trimethylphenyl)-1H-pyrazol-5-yl)acetamide]	re-sensitized; also recorded: more effective than 29 at all concentrations tested	performed relatively equally to 29; also recorded: performed similar to the parental compound	1.0	none of the Group 1 compounds functions as a transport substrate of P-gp	no		
Cc1cc(C)c(-c2cc(NC(=O)CSCC(=O)NC34CC5CC(CC(C5)C3)C4)n(-c3ccccc3)n2)cc1C [29-278, 2-({[(adamantan-1-yl)carbamoyl]methyl}sulfanyl)-N-[1-phenyl-3-(2,4,5-trimethylphenyl)-1H-pyrazol-5-yl]acetamide]			1.0			affected MDR relatively weakly	less calcein accumulation than the parental compound
